Common to all, as to type: biochemical
The target in one test is T1, PDE1A (Homo sapiens, UniProt P54750).
T1 construct: purchased Reaction Biology Corporation, Malvern, Pa
The test is described as follows: Phosphodiesterase enzyme screening assay, PDE1A. In a few lines:
(§1)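 Compounds were tested on commercial human PDE enzymes using a fluorescent cGMP substrate at 4.0 μM, incubated for one hour at room temperature. Values are means of four wells versus controls.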

For the next test, the target named is T2, PDE9A2 (Homo sapiens, UniProt O76083).
T2 construct: purchased Reaction Biology Corporation, Malvern, Pa
The test is described as follows: Phosphodiesterase enzyme screening assay, PDE9A2. The conditions noted are these: 4.0 μM cGMP substrate, 1 hour at R.T., read-out: Band (PDE9A2 IC50). In a few lines:
as §1

A further test concerns the target T3, PDE1B (Homo sapiens, UniProt Q01064).
T3 construct: purchased Reaction Biology Corporation, Malvern, Pa
The experiment in a line: Phosphodiesterase enzyme screening assay, PDE1B. In a few lines:
as §1

[1] abbreviates: Table 1, ratio of IC50 values, value greater than 1 indicates greater selectivity for PDE9A2.
Where [2] appears, read: ratio of IC50 values PDE1A / PDE9A2, value greater than 1 = greater selectivity for PDE9A2.
The mark [3] stands for this setting: ratio of IC50 values PDE1B / PDE9A2, value greater than 1 = greater selectivity for PDE9A2.

pIC50: −log10 of the molar value. Read-outs that look alike come from different tables or passages of the source. Some results are limits rather than exact numbers.

T1 sequence (P54750 whole entry): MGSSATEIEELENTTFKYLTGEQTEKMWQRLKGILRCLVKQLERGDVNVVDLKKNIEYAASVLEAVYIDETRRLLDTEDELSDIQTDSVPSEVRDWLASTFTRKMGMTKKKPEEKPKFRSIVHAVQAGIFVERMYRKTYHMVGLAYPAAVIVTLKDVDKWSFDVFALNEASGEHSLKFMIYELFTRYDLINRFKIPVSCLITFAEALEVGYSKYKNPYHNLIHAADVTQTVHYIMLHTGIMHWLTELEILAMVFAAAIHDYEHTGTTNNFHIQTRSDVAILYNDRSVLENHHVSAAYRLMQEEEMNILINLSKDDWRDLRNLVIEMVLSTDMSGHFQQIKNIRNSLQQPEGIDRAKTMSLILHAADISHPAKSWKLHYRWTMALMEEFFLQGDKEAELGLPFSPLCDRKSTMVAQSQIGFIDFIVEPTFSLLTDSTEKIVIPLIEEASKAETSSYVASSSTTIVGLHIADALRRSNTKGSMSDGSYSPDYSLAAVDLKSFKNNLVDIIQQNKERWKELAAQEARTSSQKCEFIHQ
T3 sequence (Q01064 whole entry): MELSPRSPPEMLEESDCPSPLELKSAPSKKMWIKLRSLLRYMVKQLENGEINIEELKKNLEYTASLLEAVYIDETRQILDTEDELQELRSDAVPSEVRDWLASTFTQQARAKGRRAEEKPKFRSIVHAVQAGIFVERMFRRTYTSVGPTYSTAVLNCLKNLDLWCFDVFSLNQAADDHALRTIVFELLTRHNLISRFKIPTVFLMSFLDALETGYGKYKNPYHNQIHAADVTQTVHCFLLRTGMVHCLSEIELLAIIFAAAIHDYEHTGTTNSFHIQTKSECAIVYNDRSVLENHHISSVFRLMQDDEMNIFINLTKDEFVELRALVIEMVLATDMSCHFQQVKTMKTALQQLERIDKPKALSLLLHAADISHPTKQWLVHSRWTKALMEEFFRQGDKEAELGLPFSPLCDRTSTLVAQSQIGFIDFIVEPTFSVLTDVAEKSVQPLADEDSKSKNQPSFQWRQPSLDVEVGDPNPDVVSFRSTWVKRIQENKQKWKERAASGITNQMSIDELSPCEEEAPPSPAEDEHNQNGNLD
T2 sequence (O76083 1-533 isoform O76083-2): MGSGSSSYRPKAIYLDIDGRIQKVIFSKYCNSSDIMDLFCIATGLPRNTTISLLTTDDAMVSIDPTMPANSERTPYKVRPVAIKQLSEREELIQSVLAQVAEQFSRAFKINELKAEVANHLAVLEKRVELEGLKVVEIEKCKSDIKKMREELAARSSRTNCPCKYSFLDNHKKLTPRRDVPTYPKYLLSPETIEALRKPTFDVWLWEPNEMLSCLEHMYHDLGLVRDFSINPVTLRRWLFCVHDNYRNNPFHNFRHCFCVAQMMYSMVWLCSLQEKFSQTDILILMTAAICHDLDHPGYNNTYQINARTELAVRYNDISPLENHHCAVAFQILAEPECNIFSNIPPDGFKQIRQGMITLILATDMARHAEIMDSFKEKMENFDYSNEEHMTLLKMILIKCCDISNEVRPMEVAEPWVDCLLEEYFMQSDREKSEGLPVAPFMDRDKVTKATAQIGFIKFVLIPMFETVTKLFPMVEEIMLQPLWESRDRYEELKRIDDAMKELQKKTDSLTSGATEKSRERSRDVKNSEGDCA

Regarding `CC1CN(Cc2cccc(Br)c2)CC1c1nn2c(C3CCOCC3)ncc2c(=O)[nH]1` (single isomer, unassigned; (+)) [(+)-2-((3,4-trans)-1-(3-bromobenzyl)-4-methylpyrrolidin-3-yl)-7-(tetrahydro-2H-pyran-4-yl)imidazo[5,1-f][1,2,4]triazin-4(3H)-one], the “PDE1A selectivity (versus PDE9A2)” value on PDE1A (setting [1]) is 243. For the same compound, at PDE9A2 (Table 1, 10 concentrations), the pIC50 (usually the negative decadic logarithm of the IC50, by convention in mol/L) was > 6.00. Besides, the “PDE1B selectivity (versus PDE9A2)” value at PDE1B (setting [1]) amounted to 92.

As for `CC1CN(Cc2ccc(F)c(Cl)c2)CC1c1nn2c(C3CCOCC3)ncc2c(=O)[nH]1` (single isomer, unassigned; (+)) [(+)-2-((3,4-trans)-1-(3-chloro-4-fluorobenzyl)-4-methylpyrrolidin-3-yl)-7-(tetrahydro-2H-pyran-4-yl)imidazo[5,1-f][1,2,4]triazin-4(3H)-one], the “PDE1A selectivity (versus PDE9A2)” value on PDE1A (setting [2]) is given as 604. Also, the pIC50 at PDE9A2 was > 6.00. The “PDE1B selectivity (versus PDE9A2)” value at PDE1B (setting [3]) was 430.

On to `CC1CN(Cc2cc(Cl)cc(C(F)(F)F)c2)CC1c1nn2c(C3CCOCC3)ncc2c(=O)[nH]1` (single isomer, unassigned; (+)) [(+)-2-((3,4-trans)-1-(3-chloro-5-(trifluoromethyl)benzyl)-4-methylpyrrolidin-3-yl)-7-(tetrahydro-2H-pyran-4-yl)imidazo[5,1-f][1,2,4]triazin-4(3H)-one], for which the “PDE1A selectivity (versus PDE9A2)” value on PDE1A (setting [2]) came out at 236. Further, at PDE9A2, the pIC50 was > 6.00. At PDE1B (setting [3]), the “PDE1B selectivity (versus PDE9A2)” value was determined as 105.

On to `CC1CN(Cc2cccc(Cl)c2)CC1c1nn2c(C3CCOCC3)ncc2c(=O)[nH]1` (single isomer, unassigned; (+)) [(+)-2-((3,4-trans)-1-(3-chlorobenzyl)-4-methylpyrrolidin-3-yl)-7-(tetrahydro-2H-pyran-4-yl)imidazo[5,1-f][1,2,4]triazin-4(3H)-one], for which the “PDE1A selectivity (versus PDE9A2)” value at PDE1A (setting [1]) came to 470. Further, the pIC50 on PDE9A2 (Table 1, 10 concentrations) is > 6.00. The “PDE1B selectivity (versus PDE9A2)” value on PDE1B (setting [1]) was found to be 331.

In the case of `CC1CN(Cc2cccc(C3CC3)c2)CC1c1nn2c(C3CCOCC3)ncc2c(=O)[nH]1` (single isomer, unassigned; (+)) [(+)-2-((3,4-trans)-1-(3-cyclopropylbenzyl)-4-methylpyrrolidin-3-yl)-7-(tetrahydro-2H-pyran-4-yl)imidazo[5,1-f][1,2,4]triazin-4(3H)-one], the “PDE1A selectivity (versus PDE9A2)” value on PDE1A (setting [1]) worked out at 703. In addition, the negative-log IC50 (pIC50) at PDE9A2 (Table 1, 10 concentrations) is > 6.00. Besides, the “PDE1B selectivity (versus PDE9A2)” value at PDE1B (setting [1]) stood at 903.

Consider `COc1cccc(CN2CC(C)C(c3nn4c(C5CCOCC5)ncc4c(=O)[nH]3)C2)c1` (single isomer, unassigned; (+)) [(+)-2-((3,4-trans)-1-(3-methoxybenzyl)-4-methylpyrrolidin-3-yl)-7-(tetrahydro-2H-pyran-4-yl)imidazo[5,1-f][1,2,4]triazin-4(3H)-one], for which, at PDE1A (setting [1]), the “PDE1A selectivity (versus PDE9A2)” value is 1347. In addition, on PDE9A2 (Table 1, 10 concentrations), the pIC50 is > 6.00. Also, the “PDE1B selectivity (versus PDE9A2)” value on PDE1B (setting [1]) came out at 477.

Take `CC1CN(Cc2ccc(Br)cc2)CC1c1nn2c(C3CCOCC3)ncc2c(=O)[nH]1` (single isomer, unassigned; (+)) [(+)-2-((3,4-trans)-1-(4-bromobenzyl)-4-methylpyrrolidin-3-yl)-7-(tetrahydro-2H-pyran-4-yl)imidazo[5,1-f][1,2,4]triazin-4(3H)-one]: on PDE1A (setting [1]), the “PDE1A selectivity (versus PDE9A2)” value is reported as 476. On PDE9A2 (Table 1, 10 concentrations), the pIC50 was > 6.00. Besides, the “PDE1B selectivity (versus PDE9A2)” value at PDE1B (setting [1]) is 1105.

As to `CC1CN(Cc2ccc(Cl)c(C(F)(F)F)c2)CC1c1nn2c(C3CCOCC3)ncc2c(=O)[nH]1` (single isomer, unassigned; (+)) [(+)-2-((3,4-trans)-1-(4-chloro-3-(trifluoromethyl)benzyl)-4-methylpyrrolidin-3-yl)-7-(tetrahydro-2H-pyran-4-yl)imidazo[5,1-f][1,2,4]triazin-4(3H)-one], the “PDE1A selectivity (versus PDE9A2)” value on PDE1A (setting [2]) is 196. Besides, the pIC50 at PDE9A2 was > 6.00. Besides, on PDE1B (setting [3]), the “PDE1B selectivity (versus PDE9A2)” value amounted to 406.

(Values after patent publication US9969742B2, “Imidazotriazinone compounds” (Ironwood Pharmaceuticals, Inc., priority 2012, dated 2018).)
